Data taken from publication PMC4364940, “Human β-Defensin 4 with Non-Native Disulfide Bridges Exhibit Antimicrobial Activity” (PLoS ONE, 2015).
Where two headings read alike, the source gives them in different places. Positions of bridges follow the written chain, without caps; N, C: chain ends. Residues, ends and D or L forms follow the SMILES beside them. *: point of attachment. Acm = CC(=O)NC*; tBu = CC(C)(C)*

How the values were obtained:
[1] = system: Staphylococcus aureus (NCTC 8530); details: pH 7.4
[2] = system: Escherichia coli (MG1655); details: pH 7.4
[3] = system: Candida albicans (ATCC 18804); details: ATCC 18804, 2 h
E. coli [4] = format: cell-based, Escherichia coli
E. coli [5] = format: cell-based, Escherichia coli; remark: listed apart in the source
P. aeruginosa [6] = assay: Salt sensitivity assay (150 mM NaCl); format: cell-based, Pseudomonas aeruginosa; details: peptides at lethal concentrations
[7] = system: Pseudomonas aeruginosa (NCTC 6750); details: NCTC 6750, 2 h, pH 7.4
P. aeruginosa [8] = format: cell-based, Pseudomonas aeruginosa; details: peptide treated cells plated at fixed time intervals during 2 hrs of incubation
Procedure: The antibacterial activity of peptides was examined against Gram-negative bacteria Escherichia coli (MG1655), Pseudomonas aeruginosa (NCTC 6750) and Gram-positive bacteria Staphylococcus aureus (NCTC 8530) using colony counting assay. Bacteria were sub-cultured on nutrient broth (Difco, Detroit, MI, US) at 37°C to mid-logarithmic phase from an overnight grown culture. The cells were harvested and washed with 10 mM sodium phosphate buffer (pH 7.4). 100 μl of suspension containing 10^6 cfu/ml was incubated with varying concentration of peptides for 2 hrs at 37°C. The cells were spread on nutrient agar plates and incubated for 14–18 hrs at 37°C. The numbers of colony forming units (cfu) was counted and minimum concentration at which more than 99% of killing observed was taken as lethal concentration (LC). Fungicidal activity against Candida albicans (ATCC 18804) was also determined as described for the bacteria. […] The effect of loss of proton motif force (pmf) in bacteria and C. albicans on the antimicrobial activity of the peptides was determined by adding the metabolic inhibitor like carbonyl cyanide m-chlorophenylhydrazone (CCCP) (50 μM) into the cell suspension 20 mins prior to the peptides treatment. The rate of killing with respect to time was determined by plating the peptide treated cells at fixed time intervals during 2 hrs of incubation. […]

S. aureus = format: cell-based, Staphylococcus aureus

CC[C@H](C)[C@@H]1NC(=O)[C@H](CCCNC(=N)N)NC(=O)[C@H](Cc2ccc(O)cc2)NC(=O)[C@H](CCC(=O)O)NC(=O)[C@H](CCC(N)=O)NC(=O)[C@H](CO)NC(=O)[C@H](CCCNC(=N)N)NC(=O)[C@H](CCCCN)NC(=O)[C@H](CCCCN)NC(=O)[C@H](CCCNC(=N)N)NC(=O)[C@@H](NC(=O)[C@H](CCCNC(=N)N)NC(=O)[C@H](C)NC(=O)[C@@H](NC(=O)CNC(=O)[C@H](Cc2ccc(O)cc2)NC(=O)CNC(=O)[C@H](CO)NC(=O)[C@H](CO)NC(=O)[C@@H](NC(=O)[C@H](CCCNC(=N)N)NC(=O)[C@H](CC(=O)O)NC(=O)[C@H](CC(C)C)NC(=O)[C@H](CCC(=O)O)NC(=O)[C@H](Cc2ccccc2)NC(=O)[C@@H](N)CCC(=O)O)[C@@H](C)CC)[C@@H](C)O)CSSC[C@@H](C(=O)N[C@@H](CC(C)C)C(=O)N[C@@H](CCCNC(=N)N)C(=O)N[C@@H](CCCCN)C(=O)O)NC(=O)[C@H](CO)NC(=O)[C@H](C)NC(=O)[C@H](Cc2ccc(O)cc2)NC(=O)[C@H]([C@@H](C)O)NC(=O)[C@H](CC(N)=O)NC(=O)[C@@H]2CCCN2C(=O)[C@H](CO)NC(=O)[C@H](CCCNC(=N)N)NC(=O)CNC1=O [H4-1d[S]] (H-EFELDRISSGYGTARCRKKRSQEYRIGRSPNTYASCLRK-OH; disulfide 16-36)
lethal concentration (LC) against S. aureus [1]: 5 µM | lethal concentration (LC) against E. coli [2]: 3 µM

CC[C@H](C)[C@@H]1NC(=O)[C@H](CCCNC(=N)N)NC(=O)[C@H](Cc2ccc(O)cc2)NC(=O)[C@H](CCC(=O)O)NC(=O)[C@H](CCC(N)=O)NC(=O)[C@H](CO)NC(=O)[C@H](CCCNC(=N)N)NC(=O)[C@H](CCCCN)NC(=O)[C@H](CCCCN)NC(=O)[C@H](CCCNC(=N)N)NC(=O)[C@@H](NC(=O)[C@H](CCCNC(=N)N)NC(=O)[C@H](C)NC(=O)[C@@H](NC(=O)CNC(=O)[C@H](Cc2ccc(O)cc2)NC(=O)CNC(=O)[C@H](CSC(C)(C)C)NC(=O)[C@H](CSCNC(C)=O)NC(=O)[C@@H](NC(=O)[C@H](CCCNC(=N)N)NC(=O)[C@H](CC(=O)O)NC(=O)[C@H](CC(C)C)NC(=O)[C@@H](N)CCC(=O)O)[C@@H](C)CC)[C@@H](C)O)CSSC[C@@H](C(=O)N[C@@H](CC(C)C)C(=O)N[C@@H](CCCNC(=N)N)C(=O)N[C@@H](CCCCN)C(=O)O)NC(=O)[C@H](CSCNC(C)=O)NC(=O)[C@H](C)NC(=O)[C@H](Cc2ccc(O)cc2)NC(=O)[C@H]([C@@H](C)O)NC(=O)[C@H](CC(N)=O)NC(=O)[C@@H]2CCCN2C(=O)[C@H](CSC(C)(C)C)NC(=O)[C@H](CCCNC(=N)N)NC(=O)CNC1=O [Peptide H4-1dΔEF] (H-ELDRIC(Acm)C(tBu)GYGTARCRKKRSQEYRIGRC(tBu)PNTYAC(Acm)CLRK-OH; disulfide 14-34; N-terminus and C-terminus assumed)
lethal concentration (LC) against S. aureus [1]: 3.5 µM | lethal concentration (LC) against E. coli [2]: 2.5 µM

CC[C@H](C)[C@@H]1NC(=O)[C@H](CCCNC(=N)N)NC(=O)[C@H](Cc2ccc(O)cc2)NC(=O)[C@H](CCC(=O)O)NC(=O)[C@H](CCC(N)=O)NC(=O)[C@H](CO)NC(=O)[C@H](CCCNC(=N)N)NC(=O)[C@@H]2CSSC[C@@H](C(=O)N[C@@H](CC(C)C)C(=O)N[C@@H](CCCNC(=N)N)C(=O)N[C@@H](CCCCN)C(=O)O)NC(=O)[C@@H]3CSSC[C@H](NC(=O)[C@@H](NC(=O)[C@H](CCCNC(=N)N)NC(=O)[C@H](CC(=O)O)NC(=O)[C@H](CC(C)C)NC(=O)[C@@H](N)CCC(=O)O)[C@@H](C)CC)C(=O)NCC(=O)N[C@@H](Cc4ccc(O)cc4)C(=O)NCC(=O)N[C@@H]([C@@H](C)O)C(=O)N[C@@H](C)C(=O)N[C@@H](CCCNC(=N)N)C(=O)N[C@@H](CSSC[C@H](NC(=O)[C@H](CCCNC(=N)N)NC(=O)CNC1=O)C(=O)N1CCC[C@H]1C(=O)N[C@@H](CC(N)=O)C(=O)N[C@@H]([C@@H](C)O)C(=O)N[C@@H](Cc1ccc(O)cc1)C(=O)N[C@@H](C)C(=O)N3)C(=O)N[C@@H](CCCNC(=N)N)C(=O)N[C@@H](CCCCN)C(=O)N[C@@H](CCCCN)C(=O)N2 [HBD4, Human β-defensin 4] (H-ELDRICGYGTARCRKKCRSQEYRIGRCPNTYACCLRK-OH; disulfide 6-33, 13-27, 17-34; N-terminus and C-terminus assumed)
minimum fungicidal concentration (MFC) against C. albicans [3]: 7.5 (0.91) μM | activity against E. coli in the presence of 150 mM NaCl (E. coli [4]): significant loss in activity | salt sensitivity against E. coli in the absence of pmf (E. coli [4]): attenuation of activity by NaCl is not observed | time of incubation for killing of E. coli (E. coli [5]): ≤ 30 min | lethal concentration (LC) against S. aureus ([1]; NCTC 8530, 2 h): 15 (0.47) μM | activity against P. aeruginosa in the presence of 150 mM NaCl (P. aeruginosa [6]): significant loss in activity | lethal concentration (LC) against P. aeruginosa [7]: 12 (1.35) μM | rate of killing of P. aeruginosa (P. aeruginosa [8]): more rapidly as compared to the analogs | lethal concentration (LC) against E. coli ([2]; MG1655, 2 h): 5 (0.53) μM | activity against S. aureus in the presence of 150 mM NaCl (S. aureus): significant loss in activity

CC[C@H](C)[C@@H]1NC(=O)[C@H](CCCNC(=N)N)NC(=O)[C@H](Cc2ccc(O)cc2)NC(=O)[C@H](CCC(=O)O)NC(=O)[C@H](CCC(N)=O)NC(=O)[C@H](CO)NC(=O)[C@H](CCCNC(=N)N)NC(=O)[C@H](CCCCN)NC(=O)[C@H](CCCCN)NC(=O)[C@H](CCCNC(=N)N)NC(=O)[C@@H](NC(=O)[C@H](CCCNC(=N)N)NC(=O)[C@H](C)NC(=O)[C@@H](NC(=O)CNC(=O)[C@H](Cc2ccc(O)cc2)NC(=O)CNC(=O)[C@H](CO)NC(=O)[C@H](CO)NC(=O)[C@@H](NC(=O)[C@H](CCCNC(=N)N)NC(=O)[C@H](CC(=O)O)NC(=O)[C@H](CC(C)C)NC(=O)[C@@H](N)CCC(=O)O)[C@@H](C)CC)[C@@H](C)O)CSSC[C@@H](C(=O)N[C@@H](CC(C)C)C(=O)N[C@@H](CCCNC(=N)N)C(=O)N[C@@H](CCCCN)C(=O)O)NC(=O)[C@H](CO)NC(=O)[C@H](C)NC(=O)[C@H](Cc2ccc(O)cc2)NC(=O)[C@H]([C@@H](C)O)NC(=O)[C@H](CC(N)=O)NC(=O)[C@@H]2CCCN2C(=O)[C@H](CO)NC(=O)[C@H](CCCNC(=N)N)NC(=O)CNC1=O [H4-1d[S]ΔEF] (H-ELDRISSGYGTARCRKKRSQEYRIGRSPNTYASCLRK-OH; disulfide 14-34; N-terminus and C-terminus assumed)
lethal concentration (LC) against S. aureus [1]: 5 µM | lethal concentration (LC) against E. coli [2]: 3 µM
